Laboratory results reported in patent US11072616B2, “Cyclic peptides targeting alpha-4-beta-7 integrin” (Zealand Pharma A/S, priority 2015, dated 2021).
Read-outs that look alike come from different tables or passages of the source.

Molecular target: T1, integrin α4β7 (Homo sapiens, UniProt P13612+P26010)
T1 sequence (P13612 34-977 limits assumed): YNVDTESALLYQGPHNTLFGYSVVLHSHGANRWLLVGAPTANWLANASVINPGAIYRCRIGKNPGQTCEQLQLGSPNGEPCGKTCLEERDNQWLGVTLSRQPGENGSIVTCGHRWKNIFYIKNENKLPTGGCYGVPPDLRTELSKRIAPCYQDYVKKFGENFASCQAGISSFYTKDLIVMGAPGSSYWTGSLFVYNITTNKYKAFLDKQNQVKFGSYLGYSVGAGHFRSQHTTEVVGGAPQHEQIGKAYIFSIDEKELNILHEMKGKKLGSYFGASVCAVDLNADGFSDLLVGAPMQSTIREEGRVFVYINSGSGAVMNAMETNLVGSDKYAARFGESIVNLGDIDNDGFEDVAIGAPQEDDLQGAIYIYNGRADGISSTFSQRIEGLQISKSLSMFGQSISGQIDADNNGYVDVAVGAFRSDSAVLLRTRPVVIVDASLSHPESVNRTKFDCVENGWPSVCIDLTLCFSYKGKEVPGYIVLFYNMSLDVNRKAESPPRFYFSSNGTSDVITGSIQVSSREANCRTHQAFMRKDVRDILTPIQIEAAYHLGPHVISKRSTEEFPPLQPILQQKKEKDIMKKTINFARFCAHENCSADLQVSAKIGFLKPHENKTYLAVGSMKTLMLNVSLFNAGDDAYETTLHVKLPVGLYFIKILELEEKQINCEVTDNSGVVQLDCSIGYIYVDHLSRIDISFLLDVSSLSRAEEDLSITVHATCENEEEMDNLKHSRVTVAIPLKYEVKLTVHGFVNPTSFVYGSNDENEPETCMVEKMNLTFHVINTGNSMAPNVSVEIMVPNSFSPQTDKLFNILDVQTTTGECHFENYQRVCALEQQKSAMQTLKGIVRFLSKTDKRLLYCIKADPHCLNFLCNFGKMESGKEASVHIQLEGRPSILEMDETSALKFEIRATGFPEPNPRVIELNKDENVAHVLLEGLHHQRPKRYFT
T1 sequence (P26010 20-723 limits assumed): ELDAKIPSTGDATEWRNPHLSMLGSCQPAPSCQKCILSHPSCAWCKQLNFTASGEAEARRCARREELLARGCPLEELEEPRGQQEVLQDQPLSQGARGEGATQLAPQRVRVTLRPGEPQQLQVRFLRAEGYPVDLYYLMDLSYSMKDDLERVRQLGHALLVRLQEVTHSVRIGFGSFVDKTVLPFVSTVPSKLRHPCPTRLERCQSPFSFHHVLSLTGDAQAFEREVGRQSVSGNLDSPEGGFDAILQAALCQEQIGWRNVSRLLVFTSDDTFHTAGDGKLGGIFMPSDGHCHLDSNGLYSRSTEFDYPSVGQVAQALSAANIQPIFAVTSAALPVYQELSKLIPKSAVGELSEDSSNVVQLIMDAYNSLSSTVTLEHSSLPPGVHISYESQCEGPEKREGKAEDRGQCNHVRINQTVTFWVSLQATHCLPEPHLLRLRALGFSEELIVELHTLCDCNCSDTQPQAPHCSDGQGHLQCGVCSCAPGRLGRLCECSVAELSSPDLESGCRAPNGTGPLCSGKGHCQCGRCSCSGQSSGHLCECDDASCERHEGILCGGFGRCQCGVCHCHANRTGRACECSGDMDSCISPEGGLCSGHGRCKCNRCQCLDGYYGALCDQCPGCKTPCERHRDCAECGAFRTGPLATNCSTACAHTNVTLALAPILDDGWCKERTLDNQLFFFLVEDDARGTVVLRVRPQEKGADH
Assay: Integrin α4β7—MAdCAM-1 competition assay (ELISA)
Type: binding
Experimental: Integrin α4β7—MAdCAM-1 Competition Assay
The plate was incubated at 4° C. overnight. […] The plate was then incubated for 1 hour at room temperature. The plate was washed three times with wash buffer (50 mM Tris, 100 mM NaCl, 1 mM MnCl2, 0.05% Tween). To each well, 50 μl of compound diluted in assay buffer was added by transfer from a compound serial dilution plate. […] The plate was incubated at room temperature with shaking for 2 hours to reach binding equilibrium. Then the plate was washed three times in wash buffer and 100 μl anti-human IgG Fc specific-horseradish peroxidase (HRP) (Abcam, Ab97225) diluted at 1:2000 in assay buffer was added to each well. The plate was incubated at room temperature for 1 hour under agitation. The plates were then washed three times and 100 μl of 1,3′,5,5′-tetramethylbenxidie (TMB) was then added to each well.

[1] = ratio a4b1 ELISA IC50 / a4b7 ELISA IC50

CC(C)C[C@@H]1NC(=O)CN(C)C(=O)[C@H](Cc2csc(-c3cccnc3)n2)NC(=O)[C@@H]2CCCN2[C@H](C(=O)NC(C)(C)C)[C@H](C)NC(=O)[C@H]([C@@H](C)O)NC(=O)[C@H](CC(=O)O)NC1=O [Compound 181]
Selectivity ELISA [1]: 12.6

CC(C)C[C@@H]1NC(=O)C[C@H](CCCCN)NC(=O)CN(Cc2ccccc2)C(=O)[C@@H]2CCCN2[C@H](C(=O)NC(C)(C)C)[C@H](C)NC(=O)[C@H]([C@@H](C)O)NC(=O)[C@H](CC(=O)O)NC1=O [Compound 296]
Selectivity ELISA [1]: 94.8

Cc1cccc(C)c1-c1ccccc1C[C@@H]1NC(=O)[C@@H]2CCCN2[C@H](C(=O)NC(C)(C)C)[C@H](C)NC(=O)[C@H]([C@@H](C)O)NC(=O)[C@H](CC(=O)O)NC(=O)[C@H](CC(C)C)NC(=O)C[C@H](CCCCN)NC1=O [Compound 272]
Selectivity ELISA [1]: 58.1

CC(C)C[C@@H]1NC(=O)CN(C)C(=O)[C@H](Cc2cccc(I)c2)NC(=O)[C@@H]2CCCN2[C@H](C(=O)NC(C)(C)C)[C@H](C)NC(=O)[C@H]([C@@H](C)O)NC(=O)[C@H](CC(=O)O)NC1=O [Compound 106]
Selectivity ELISA [1]: 18.7

CC(C)C[C@@H]1NC(=O)CN(C)C(=O)[C@H](Cc2cccc3ccccc23)NC(=O)[C@@H]2CCCN2[C@H](C(=O)NC(C)(C)C)[C@H](C)NC(=O)[C@H]([C@@H](C)O)NC(=O)[C@H](CC(=O)O)NC1=O [Compound 117]
Selectivity ELISA [1]: 8.7

CC(C)C[C@@H]1NC(=O)C[C@H](CCCCN)NC(=O)[C@H](Cc2ccccc2-c2ccc(N3CCNCC3)cc2)NC(=O)[C@@H]2CCCN2[C@H](C(=O)NC(C)(C)C)[C@H](C)NC(=O)[C@H]([C@@H](C)O)NC(=O)[C@H](CC(=O)O)NC1=O [Compound 271]
Selectivity ELISA [1]: 34.6

CC[C@H](C)[C@@H]1NC(=O)[C@H](CC(=O)O)NC(=O)[C@H](CC(C)C)NC(=O)[C@@H](CCCCN)N(C)C(=O)[C@H](Cc2ccc(O)cc2)NC(=O)[C@@H]2CCCN2[C@H](C(=O)NC(C)(C)C)[C@H](C)NC1=O [Compound 154]
Selectivity ELISA [1]: 22.8

CC(C)C[C@@H]1NC(=O)[C@H](Cc2c[nH]cn2)NC(=O)[C@@H]2CCCN2[C@H](C(=O)NC(C)(C)C)[C@@H](CSc2ccccc2)NC(=O)[C@H](C(C)C)NC(=O)[C@H](CC(=O)O)NC1=O [Compound 2]
Selectivity ELISA [1]: 1.697

CC(C)C[C@@H]1NC(=O)[C@H](Cc2ccc(O)cc2)NC(=O)[C@@H]2CCCN2[C@H](C(=O)NC(C)(C)C)[C@H](C)NC(=O)[C@H](C(C)(C)S)NC(=O)[C@H](CC(=O)O)NC1=O [Compound 55]
Selectivity ELISA [1]: 1.1

CC(C)C[C@@H]1NC(=O)c2ccc(-c3cccc(CN)c3)c(c2)CNC(=O)[C@H](Cc2ccc(O)cc2)NC(=O)[C@@H]2CCCN2[C@H](C(=O)NC(C)(C)C)[C@H](C)NC(=O)[C@H]([C@@H](C)O)NC(=O)[C@H](CC(=O)O)NC1=O [Compound 339]
Selectivity ELISA [1]: 5.8

CC(C)C[C@@H]1NC(=O)[C@@H](CCCCN)NC(=O)[C@H](Cc2cccc3ccccc23)NC(=O)[C@@H]2CCCN2[C@H](C(=O)NC(C)(C)C)[C@H](C)NC(=O)[C@H]([C@@H](C)O)NC(=O)[C@H](CC(=O)O)NC1=O [Compound 120]
Selectivity ELISA [1]: 19.1

Cc1cccc(C)c1-c1ccc(C[C@@H]2NC(=O)[C@@H]3CCCN3[C@H](C(=O)NC(C)(C)C)[C@H](C)NC(=O)[C@H]([C@@H](C)O)NC(=O)[C@H](CC(=O)O)NC(=O)[C@H](CC(C)C)NC(=O)C[C@H](CCCCN)NC2=O)cc1 [Compound 268]
Selectivity ELISA [1]: 24.6

CC(C)C[C@@H]1NC(=O)[C@H]2CCCCN2C(=O)[C@@H]2CCCN2[C@H](C(=O)NC(C)(C)C)[C@H](C)NC(=O)[C@H]([C@@H](C)O)NC(=O)[C@H](CC(=O)O)NC1=O [Compound 51]
Selectivity ELISA [1]: 3.3

CC(C)C[C@@H]1NC(=O)[C@@H](CCCCN)NC(=O)[C@H](Cc2ccc(O)cc2)NC(=O)[C@@H]2CCCN2[C@H](C(=O)NC(C)(C)C)[C@H](C)NC(=O)[C@H]([C@@H](C)O)N(C)C(=O)[C@H](CC(=O)O)NC1=O [Compound 121]
Selectivity ELISA [1]: 11.4

CC(C)C[C@@H]1NC(=O)[C@@H](CCCN(C)C)NC(=O)[C@@H]2CCCN2[C@H](C(=O)NC(C)(C)C)[C@H](C)NC(=O)[C@H]([C@@H](C)O)NC(=O)[C@H](CC(=O)O)NC1=O [Compound 83]
Selectivity ELISA [1]: 6.9

CC(C)C[C@@H]1NC(=O)[C@H]2CCCCN2C(=O)[C@H](Cc2ccccc2-c2ccccc2)NC(=O)[C@@H]2CCCN2[C@H](C(=O)NC(C)(C)C)[C@H](C)NC(=O)[C@H]([C@@H](C)O)NC(=O)[C@H](CC(=O)O)NC1=O [Compound 134]
Selectivity ELISA [1]: 7.6

CC(C)C[C@@H]1NC(=O)[C@H](CCc2ccccc2)NC(=O)[C@@H]2CCCN2[C@H](C(=O)NC(C)(C)C)[C@H](C)NC(=O)[C@H]([C@@H](C)O)NC(=O)[C@H](CC(=O)O)NC1=O [Compound 6]
Selectivity ELISA [1]: 1.9

CC(C)C[C@@H]1NC(=O)CNC(=O)[C@H](Cc2ccc(CN)cc2)NC(=O)[C@@H]2CCCN2[C@H](C(=O)NC(C)(C)C)[C@H](C)NC(=O)[C@H]([C@@H](C)O)NC(=O)[C@H](CC(=O)O)NC1=O [Compound 165]
Selectivity ELISA [1]: 22.8

CC(C)C[C@@H]1NC(=O)C[C@H](CCCCN)NC(=O)[C@H](Cc2ccc(O)cc2)NC(=O)[C@@H]2CCCN2[C@H](C(=O)NC(C)(C)C)[C@H](C)NC(=O)[C@H]([C@@H](C)OCc2ccccc2)NC(=O)[C@H](CC(=O)O)NC1=O [Compound 200]
Selectivity ELISA [1]: 2.6

CC(C)C[C@@H]1NC(=O)C[C@H](CCCCN)NC(=O)C2(Cc3ccccc3C2)NC(=O)[C@@H]2CCCN2[C@H](C(=O)NC(C)(C)C)[C@H](C)NC(=O)[C@H]([C@@H](C)O)NC(=O)[C@H](CC(=O)O)NC1=O [Compound 288]
Selectivity ELISA [1]: 12.2

CC(C)C[C@@H]1NC(=O)[C@H]2C[C@H](O)CN2C(=O)[C@H](Cc2cscn2)NC(=O)[C@@H]2CCCN2[C@H](C(=O)NC(C)(C)C)[C@H](C)NC(=O)[C@H]([C@@H](C)O)NC(=O)[C@H](CC(=O)O)NC1=O [Compound 151]
Selectivity ELISA [1]: 4.1

CC(C)C[C@@H]1NC(=O)c2ccc(-c3ccc(N4CCN(C(=O)COCC(=O)N5CCN(c6ccc(-c7ccc8cc7CNC(=O)[C@@H]7CCCN7[C@H](C(=O)NC(C)(C)C)[C@H](C)NC(=O)[C@H]([C@@H](C)O)NC(=O)[C@H](CC(=O)O)NC(=O)[C@H](CC(C)C)NC8=O)cc6)CC5)CC4)cc3)c(c2)CNC(=O)[C@@H]2CCCN2[C@H](C(=O)NC(C)(C)C)[C@H](C)NC(=O)[C@H]([C@@H](C)O)NC(=O)[C@H](CC(=O)O)NC1=O [Compound 390]
Selectivity ELISA: 1.749

CC(C)C[C@@H]1NC(=O)[C@@H]2C[C@@H](O)CN2C(=O)[C@H](Cc2ccc(O)cc2)NC(=O)[C@@H]2CCCN2[C@H](C(=O)NC(C)(C)C)[C@H](C)NC(=O)[C@H]([C@@H](C)O)NC(=O)[C@H](CC(=O)O)NC1=O [Compound 139]
Selectivity ELISA [1]: 0.7

COc1cccc(-c2ccccc2C[C@@H]2NC(=O)[C@@H]3CCCN3[C@H](C(=O)NC(C)(C)C)[C@H](C)NC(=O)[C@H]([C@@H](C)O)NC(=O)[C@H](CC(=O)O)NC(=O)[C@H](CC(C)C)NC(=O)[C@H]3CCCCN3C2=O)c1 [Compound 136]
Selectivity ELISA [1]: 6.6
